Results: the supplement of paper PMC11579375

Columns and labels:
Experiment in all cases: area under the viability dose-response curve (AUC) (AUC (arbitrary units, max 500 = no viability loss)); higher = less sensitive (higher viability)
Conditions in all cases: exposure time: 120 h; concentration range: 0.1 nM - 10 µM, 6 doses
13E = system: 13E (embryonal-type hepatoblastoma organoid)
Experimental: (§1)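 Patient-derived hepatoblastoma tumor organoids (about 50 organoids per well, 384-well plates, medium with 5% BME) were treated with the PMC pediatric cancer drug library. Each drug was tested in duplicate at 6 concentrations (0.1 nM to 10 µM, 10-fold steps).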

10F2 = system: 10F2 (fetal-II hepatoblastoma organoid with high liver markers)
Experimental: as §1

27F1 = system: 27F1 (fetal-I hepatoblastoma organoid with intermediate liver markers)
Experimental: as §1

135F2 = system: 135F2 (fetal-II hepatoblastoma organoid with high liver markers)
Experimental: as §1

17F1 = system: 17F1 (fetal-I hepatoblastoma organoid with intermediate liver markers)
Experimental: as §1

3E = system: 3E (embryonal-type hepatoblastoma organoid)
Experimental: as §1

96F1 = system: 96F1 (fetal-I hepatoblastoma organoid with intermediate liver markers)
Experimental: as §1

13F2 = system: 13F2 (fetal-II hepatoblastoma organoid with high liver markers)
Experimental: as §1

22E = system: 22E (embryonal-type hepatoblastoma organoid)
Experimental: as §1

17E = system: 17E (embryonal-type hepatoblastoma organoid)
Experimental: as §1

8F1 = system: 8F1 (fetal-I hepatoblastoma organoid with intermediate liver markers)
Experimental: as §1

SMILES	area under the viability dose-response curve (13E)	area under the viability dose-response curve (10F2)	area under the viability dose-response curve (27F1)	area under the viability dose-response curve (135F2)	area under the viability dose-response curve (17F1)	area under the viability dose-response curve (3E)	area under the viability dose-response curve (96F1)	area under the viability dose-response curve (13F2)	area under the viability dose-response curve (22E)	area under the viability dose-response curve (17E)	area under the viability dose-response curve (8F1)
CC(C)N(C[C@H]1O[C@@H](n2cnc3c(N)ncnc32)[C@H](O)[C@@H]1O)[C@H]1C[C@@H](CCc2nc3cc(C(C)(C)C)ccc3[nH]2)C1 [Pinometostat]	493	432	490	489	472	> 500	469	486	> 500	453	497
C=CC(=O)N1CC[C@H](n2nc(C#Cc3cc(OC)cc(OC)c3)c3c(N)ncnc32)C1 [Futibatinib]	372	440	> 500	> 500	> 500	236	> 500	370	425	323	482
CS(=O)(=O)OCCCCOS(C)(=O)=O [Busulfan]	489	> 500	–	> 500	> 500	–	485	> 500	490	> 500	–
NC1(c2ccc(-c3nc4ccn5c(=O)[nH]nc5c4cc3-c3ccccc3)cc2)CCC1 [MK-2206]	415	445	459	462	473	371	427	395	440	377	431
C[C@H]1Oc2cc(cnc2N)-c2c(nn(C)c2C#N)CN(C)C(=O)c2ccc(F)cc21 [Lorlatinib]	450	435	471	498	481	459	463	448	471	416	476
S=c1nc[nH]c2nc[nH]c12 [6-Mercaptopurine]	449	478	469	402	451	> 500	420	443	460	429	465
C[C@@H](Oc1cc(-n2cnc3ccc(CN4CCN(C)CC4)cc32)sc1C(N)=O)c1ccccc1C(F)(F)F	262	250	262	254	276	246	361	268	256	277	358
CC1=C(/C=C/C(C)=C/C=C/C(C)=C/C(=O)Nc2ccc(O)cc2)C(C)(C)CCC1 [Fenretinide]	446	418	484	430	443	386	430	469	418	426	470
CS(=O)(=O)CCNCc1ccc(-c2ccc3ncnc(Nc4ccc(OCc5cccc(F)c5)c(Cl)c4)c3c2)o1 [Lapatinib]	483	336	416	474	459	464	445	388	463	482	495
COc1ccc(-c2ccc3c(N4CCOC[C@@H]4C)nc(N4CCOC[C@@H]4C)nc3n2)cc1CO [AZD8055]	366	259	468	342	456	316	445	278	396	331	466
CNC(=O)CN1CCC(Oc2cc3c(Nc4cccc(Cl)c4F)ncnc3cc2OC)CC1 [Sapitinib]	> 500	235	338	458	464	431	404	312	492	491	439
CC[C@@]1(O)C(=O)OCc2c1cc1n(c2=O)Cc2cc3c(CN(C)C)c(O)ccc3nc2-1 [Topotecan]	328	311	348	291	319	257	284	239	416	269	372
CN(C)C/C=C/C(=O)Nc1cc2c(Nc3ccc(F)c(Cl)c3)ncnc2cc1O[C@H]1CCOC1 [Afatinib]	472	253	342	442	408	456	352	271	489	491	493
Cc1cc(C)cc(C(=O)NOCCCCCC(=O)NO)c1 [LMK-235]	404	395	411	378	418	407	426	379	413	365	428
COc1cc(C(=O)O)ccc1NC(=O)[C@@H]1N[C@@H](CC(C)(C)C)[C@](C#N)(c2ccc(Cl)cc2F)[C@H]1c1cccc(Cl)c1F [Idasanutlin]	413	291	402	397	457	349	471	282	450	378	371
Cn1nnc2c(C(N)=O)ncn2c1=O [Temozolomide]	> 500	468	> 500	> 500	494	499	480	487	490	462	> 500
CC1=C(/C=C/C(C)=C/C=C/C(C)=C\C(=O)O)C(C)(C)CCC1 [Isotretinoin]	468	> 500	> 500	496	> 500	440	> 500	> 500	472	495	> 500
CC[C@@]1(O)C(=O)OCc2c1cc1n(c2=O)Cc2cc3ccccc3nc2-1 [Camptothecin]	304	219	255	227	277	201	208	174	361	263	295

SMILES	area under the viability dose-response curve (13E)	area under the viability dose-response curve (10F2)	area under the viability dose-response curve (27F1)	area under the viability dose-response curve (135F2)	area under the viability dose-response curve (17F1)	area under the viability dose-response curve (3E)	area under the viability dose-response curve (96F1)	area under the viability dose-response curve (13F2)	area under the viability dose-response curve (22E)	area under the viability dose-response curve (17E)	area under the viability dose-response curve (8F1)
CCc1c2c(nc3ccc(O)cc13)-c1cc3c(c(=O)n1C2)COC(=O)[C@]3(O)CC [SN-38 (Irinotecan)]	266	173	178	156	189	156	173	162	312	200	251
Cc1cc(Nc2ncc(Cl)c(Nc3ccccc3S(=O)(=O)C(C)C)n2)c(OC(C)C)cc1C1CCNCC1 [Ceritinib]	381	356	432	373	446	351	413	349	375	368	441
Nc1nc(=S)c2[nH]cnc2[nH]1 [6-Thioguanine]	437	462	443	390	457	484	412	381	448	432	476
CCN(c1cc(-c2ccc(CN3CCOCC3)cc2)cc(C(=O)NCc2c(C)cc(C)[nH]c2=O)c1C)C1CCOCC1 [Tazemetostat]	479	448	475	473	482	461	473	360	481	415	> 500
N[C@@H](Cc1ccc(N(CCCl)CCCl)cc1)C(=O)O [Melphalan]	417	414	> 500	469	> 500	> 500	467	436	> 500	434	483
Nc1ncn([C@H]2C[C@H](O)[C@@H](CO)O2)c(=O)n1 [Decitabine (Guadecitabine)]	485	375	487	440	466	453	455	392	477	461	478
CNC(=O)c1ccc(-c2cnc3ncc(Cc4ccc5ncccc5c4)n3n2)cc1F [Capmatinib]	498	> 500	465	491	477	> 500	478	403	462	481	460
Cc1cn(-c2cc(NC(=O)c3ccc(C)c(Nc4nccc(-c5cccnc5)n4)c3)cc(C(F)(F)F)c2)cn1 [Nilotinib]	493	> 500	> 500	476	496	489	495	471	478	456	486
CC[C@]1(O)C[C@@H]2CN(CCc3c([nH]c4ccccc34)[C@@](C(=O)OC)(c3cc4c(cc3OC)N(C)[C@H]3[C@@](O)(C(N)=O)[C@H](O)[C@]5(CC)C=CCN6CC[C@]43[C@@H]65)C2)C1 [Vindesine]	204	195	238	202	239	170	173	246	219	206	211
CN(C)C(=N)NC(=N)N [Metformin]	> 500	469	–	> 500	482	–	> 500	> 500	> 500	> 500	–
O=C1c2c(O)ccc(O)c2C(=O)c2c(NCCNCCO)ccc(NCCNCCO)c21 [Mitoxantrone]	274	294	–	285	319	208	313	222	340	257	405
CCCCCCCCCCCCCCCCCCOP(=O)([O-])OC1CC[N+](C)(C)CC1 [Perifosine]	> 500	470	> 500	–	> 500	> 500	–	480	> 500	499	482
COCCOc1cnc2ccn([C@H](C)c3nnc4c(F)cc(-c5cnn(C)c5)cn34)c(=O)c2c1 [AMG 337]	488	446	–	488	495	–	> 500	483	> 500	494	–
Cc1c2oc3c(C)ccc(C(=O)N[C@@H]4C(=O)N[C@H](C(C)C)C(=O)N5CCC[C@H]5C(=O)N(C)CC(=O)N(C)[C@@H](C(C)C)C(=O)O[C@@H]4C)c3nc-2c(C(=O)N[C@@H]2C(=O)N[C@H](C(C)C)C(=O)N3CCC[C@H]3C(=O)N(C)CC(=O)N(C)[C@@H](C(C)C)C(=O)O[C@@H]2C)c(N)c1=O [Actinomycin D]	205	160	–	127	187	134	169	114	215	150	222
COc1cc2/c(=N/c3ccc(Br)cc3F)nc[nH]c2cc1OCC1CCN(C)CC1 [Vandetanib]	459	340	446	428	449	474	410	373	–	429	487
CN(C)C(=O)c1cc2cnc(Nc3ccc(N4CCNCC4)cn3)nc2n1C1CCCC1 [Ribociclib]	446	442	442	461	473	404	472	422	–	406	470
CO[C@@H](C)Cn1c(=O)n(C)c2cnc3ccc(-c4cncc(C(C)(C)O)c4)cc3c21 [Samotolisib]	364	372	424	361	446	306	406	334	–	357	442
